Experimental data: the NIST ThermoML archive (doi:10.1021/acs.jced.5b00259)
± gives the expanded uncertainty stated by the source.

What was measured:
[1] = xn = mol fraction of the nth substance listed; settings: 100 kPa, Liquid, x2 = 0
[2] = 100 kPa, Liquid

CCCO [propan-1-ol] + CCOS(=O)(=O)[O-].CC[NH+]=C(N(C)C)N(C)C
[1]
Settings | mass density [kg/m3] | viscosity [mPa·s]
293.15 K | 803.49 ± 0.43 | 2.164 ± 0.17
298.15 K | 799.49 ± 0.44 | 1.948 ± 0.16
303.15 K | 795.46 ± 0.45 | 1.707 ± 0.14
308.15 K | 791.39 ± 0.45 | 1.525 ± 0.12
313.15 K | 787.29 ± 0.46 | 1.366 ± 0.11
318.15 K | 783.14 ± 0.46 | 1.228 ± 0.099
323.15 K | 778.93 ± 0.47 | 1.107 ± 0.089

CCCO [propan-1-ol] + CC[NH+]=C(N(C)C)N(C)C.O=S(=O)([N-]S(=O)(=O)C(F)(F)F)C(F)(F)F
[1]
Settings | mass density [kg/m3] | viscosity [mPa·s]
293.15 K | 803.49 ± 0.43 | 2.164 ± 0.087
298.15 K | 799.49 ± 0.44 | 1.948 ± 0.078
303.15 K | 795.46 ± 0.45 | 1.707 ± 0.069
308.15 K | 791.39 ± 0.45 | 1.525 ± 0.061
313.15 K | 787.29 ± 0.46 | 1.366 ± 0.055
318.15 K | 783.14 ± 0.46 | 1.228 ± 0.05
323.15 K | 778.93 ± 0.47 | 1.107 ± 0.045

CCOS(=O)(=O)[O-].CC[NH+]=C(N(C)C)N(C)C [2-ethyl-1,1,3,3-tetramethylguanidinium ethyl sulfate]
[2]
Settings | mass density [kg/m3] | viscosity [mPa·s]
293.15 K | 1170.76 ± 1.5 | 673.4 ± 300
298.15 K | 1167.24 ± 1.5 | 441.5 ± 170
303.15 K | 1163.76 ± 1.5 | 302.5 ± 95
308.15 K | 1160.28 ± 1.5 | 214.6 ± 54
313.15 K | 1156.8 ± 1.4 | 157.2 ± 31
318.15 K | 1153.33 ± 1.4 | 118.3 ± 18
323.15 K | 1149.87 ± 1.4 | 91.22 ± 9.6

CCO [ethanol]
[2]
Settings | mass density [kg/m3] | viscosity [mPa·s]
293.15 K | 789.62 ± 0.46 | 1.177 ± 0.047
298.15 K | 785.25 ± 0.47 | 1.071 ± 0.043
303.15 K | 780.89 ± 0.47 | 0.978 ± 0.04
308.15 K | 776.52 ± 0.48 | 0.895 ± 0.036
313.15 K | 772.12 ± 0.49 | 0.822 ± 0.033
318.15 K | 767.71 ± 0.49 | 0.756 ± 0.031
323.15 K | 763.26 ± 0.5 | 0.698 ± 0.028

CC[NH+]=C(N(C)C)N(C)C.O=S(=O)([N-]S(=O)(=O)C(F)(F)F)C(F)(F)F
[2]
Settings | mass density [kg/m3] | viscosity [mPa·s]
293.15 K | 1414.89 ± 12 | 74.61 ± 5.5
298.15 K | 1410.03 ± 12 | 58.86 ± 2.3
303.15 K | 1405.19 ± 12 | 47.27 ± 2.3
308.15 K | 1400.38 ± 12 | 38.71 ± 1.8
313.15 K | 1395.59 ± 12 | 32.2 ± 1.5
318.15 K | 1390.8 ± 12 | 27.09 ± 1.3
323.15 K | 1386.03 ± 12 | 23.14 ± 1.1

CCO [ethanol] + CC[NH+]=C(N(C)C)N(C)C.O=S(=O)([N-]S(=O)(=O)C(F)(F)F)C(F)(F)F
[1]
Settings | mass density [kg/m3] | viscosity [mPa·s]
293.15 K | 789.62 ± 0.46 | 1.177 ± 0.047
298.15 K | 785.25 ± 0.47 | 1.071 ± 0.043
303.15 K | 780.89 ± 0.47 | 0.978 ± 0.04
308.15 K | 776.52 ± 0.48 | 0.895 ± 0.036
313.15 K | 772.12 ± 0.49 | 0.822 ± 0.033
318.15 K | 767.71 ± 0.49 | 0.756 ± 0.031
323.15 K | 763.26 ± 0.5 | 0.698 ± 0.028

CCCO [propan-1-ol]
[2]
Settings | mass density [kg/m3] | viscosity [mPa·s]
293.15 K | 803.49 ± 0.43 | 2.164 ± 0.087
298.15 K | 799.49 ± 0.44 | 1.948 ± 0.078
303.15 K | 795.46 ± 0.45 | 1.707 ± 0.069
308.15 K | 791.39 ± 0.45 | 1.525 ± 0.061
313.15 K | 787.29 ± 0.46 | 1.366 ± 0.055
318.15 K | 783.14 ± 0.46 | 1.228 ± 0.05
323.15 K | 778.93 ± 0.47 | 1.107 ± 0.045

CCO [ethanol] + CCOS(=O)(=O)[O-].CC[NH+]=C(N(C)C)N(C)C
[1]
Settings | mass density [kg/m3] | viscosity [mPa·s]
293.15 K | 789.62 ± 0.46 | 1.177 ± 0.047
298.15 K | 785.25 ± 0.47 | 1.071 ± 0.043
303.15 K | 780.89 ± 0.47 | 0.978 ± 0.04
308.15 K | 776.52 ± 0.48 | 0.895 ± 0.036
313.15 K | 772.12 ± 0.49 | 0.822 ± 0.033
318.15 K | 767.71 ± 0.49 | 0.756 ± 0.031
323.15 K | 763.26 ± 0.5 | 0.698 ± 0.028
